Data: US20260250318A1, “COMPOSITIONS AND METHODS FOR CROSSING THE BLOOD BRAIN BARRIER” (VOYAGER THERAPEUTICS, INC., priority 2022, published 2026)

What was measured:
[1] = tested on: brains, heart, liver, muscle, and DRG of the NHPs; test: Maturation of TTM-001 and TTM-002 capsids, NGS enrichment in NHP tissues; format: in vivo; conditions: relative to AAV9 control
How it was run: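 Variants carry mutations within and flanking the loop IV peptide insert: positions 450–466 were triplet-randomized, while positions 449–466 received low-frequency point mutations. The combined pool went into two NHPs, and each peptide was scored by NGS enrichment ratio against AAV9.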

brain = test: Matured TTM-001 and TTM-002 variants, NGS enrichment in mouse brain; format: in vivo, mice; conditions: relative to AAV9 control
[2] = NGS fold-enrichment, DRG of NHPs
[3] = NGS fold-enrichment, RNA, brain of NHPs
[4] = NGS fold-enrichment, heart of NHPs
[5] = NGS fold-enrichment, liver DNA of NHPs
[6] = NGS fold-enrichment, liver RNA of NHPs
[7] = NGS fold-enrichment, muscle of NHPs
[8] = NGS fold-enrichment, brain of mice
[9] = NGS fold-enrichment of RNA, NHP brain
[10] = NGS fold-enrichment, NHP liver DNA
[11] = NGS fold-enrichment, NHP liver RNA
[12] = NGS fold-enrichment, NHP muscle
[13] = NGS fold-enrichment, mouse brain
[14] = NGS fold-enrichment of matured AAV capsid variants, NHP brain, RNA

| Sequence | Fold Enrichment relative to AAV9, DRG (NHP) [1, 2] | Fold Enrichment relative to AAV9, Brain (NHP) [1, 3] | Fold Enrichment relative to AAV9, Heart (NHP) [1, 4] | Fold Enrichment relative to AAV9, Liver DNA (NHP) [1, 5] | Fold Enrichment relative to AAV9, Liver RNA (NHP) [1, 6] | Fold Enrichment relative to AAV9, Muscle (NHP) [1, 7] | Fold Enrichment relative to AAV9, Brain (Mouse) (brain; [8]) | Fold Enrichment relative to AAV9, Brain (NHP) [1, 9] | Fold Enrichment relative to AAV9, DRG (NHP) ([1]; NGS fold-enrichment, NHP DRG) | Fold Enrichment relative to AAV9, Heart (NHP) ([1]; NGS fold-enrichment, NHP heart) | Fold Enrichment relative to AAV9, Liver DNA (NHP) [1, 10] | Fold Enrichment relative to AAV9, Liver RNA (NHP) [1, 11] | Fold Enrichment relative to AAV9, Muscle (NHP) [1, 12] | Fold Enrichment relative to AAV9, Brain (Mouse) (brain; [13]) | Fold Enrichment relative to AAV9, Brain (NHP) [1, 14] | Fold Enrichment relative to AAV9, DRG (NHP) ([1]; NHP DRG) | Fold Enrichment relative to AAV9, Heart (NHP) ([1]; NHP heart) | Fold Enrichment relative to AAV9, Liver DNA (NHP) ([1]; NHP liver, DNA) | Fold Enrichment relative to AAV9, Liver RNA (NHP) ([1]; NHP liver, RNA) | Fold Enrichment relative to AAV9, Muscle (NHP) ([1]; NHP muscle) | also measured |
| --- | --- | --- | --- | --- | --- | --- | --- | --- | --- | --- | --- | --- | --- | --- | --- | --- | --- | --- | --- | --- | --- |
| KVINGSGSPHSKGQNQQT (peptide inserted in AAV capsid) | 0.000 fold | 60.001 fold | 0.000 fold | 0.157 fold | 0.264 fold | 0.031 fold | 68.532 fold |  |  |  |  |  |  |  |  |  |  |  |  |  |  |
| KTINGHDSPHKTGQNQQK |  |  |  |  |  |  |  | 77.562 fold | 0.000 fold | 1.056 fold | 0.000 fold | 0.000 fold | 0.000 fold | 6.379 fold |  |  |  |  |  |  |  |
| KTSNGSGSPHSKAQNPPT | 0.000 fold | 91.528 fold | 0.000 fold | 0.039 fold | 0.000 fold | 0.000 fold | 51.541 fold | 91.528 fold | 0.000 fold | 0.000 fold | 0.039 fold | 0.000 fold | 0.000 fold | 51.541 fold |  |  |  |  |  |  |  |
| KTINGHDSPHKSVQTHQT |  |  |  |  |  |  |  | 77.309 fold | 0.237 fold | 0.062 fold | 0.116 fold | 0.000 fold | 0.000 fold | 7.519 fold |  |  |  |  |  |  |  |
| KQGEGSGSPHSKAQNQQT |  |  |  |  |  |  |  |  |  |  |  |  |  |  | 58.752 fold | 0.000 fold | 0.000 fold | 0.151 fold | 0.000 fold | 0.000 fold | Fold Enrichment relative to AAV9, Brain (Mouse) (brain; mouse brain): 135.300 fold |
| KTEFVSGSPHSKAQNQQT | 0.000 fold | 59.306 fold | 0.000 fold | 0.276 fold | 0.196 fold | 0.000 fold | 69.788 fold |  |  |  |  |  |  |  |  |  |  |  |  |  |  |
| KTIDGHDSPHKSGQNQHA |  |  |  |  |  |  |  | 91.058 fold | 0.000 fold | 0.082 fold | 0.000 fold | 0.000 fold | 0.000 fold | 10.781 fold |  |  |  |  |  |  |  |
| KTINGSGSPHSYHVNQQT |  |  |  |  |  |  |  |  |  |  |  |  |  |  | 50.486 fold | 0.000 fold | 0.056 fold | 0.275 fold | 0.528 fold | 0.059 fold | Fold Enrichment relative to AAV9, Brain (Mouse) (brain; mouse brain): 179.489 fold |
| KTDNGHDSPHKSRQNQQT |  |  |  |  |  |  |  | 105.312 fold | 0.000 fold | 0.033 fold | 0.018 fold | 0.000 fold | 0.000 fold | 7.931 fold |  |  |  |  |  |  |  |
| KTINGSGSPHSKAQGAIT |  |  |  |  |  |  |  |  |  |  |  |  |  |  | 57.627 fold | 0.000 fold | 0.000 fold | 0.161 fold | 0.594 fold | 0.000 fold | Fold Enrichment relative to AAV9, Brain (Mouse) (brain; mouse brain): 95.696 fold |
| KTINGGGSPHSKAQTQQI | 0.000 fold | 92.345 fold | 0.000 fold | 0.023 fold | 0.000 fold | 0.000 fold | 54.199 fold | 92.345 fold | 0.000 fold | 0.000 fold | 0.023 fold | 0.000 fold | 0.000 fold | 54.199 fold |  |  |  |  |  |  |  |
| KTINGSGSPHSKAQGSLT |  |  |  |  |  |  |  |  |  |  |  |  |  |  | 54.717 fold | 0.000 fold | 0.006 fold | 0.298 fold | 0.480 fold | 0.013 fold | Fold Enrichment relative to AAV9, Brain (Mouse) (brain; mouse brain): 142.786 fold |
| KTERTSGSPHSKAQNQQT | 0.000 fold | 112.957 fold | 0.009 fold | 0.207 fold | 1.128 fold | 0.000 fold | 117.374 fold | 112.957 fold | 0.000 fold | 0.009 fold | 0.207 fold | 1.128 fold | 0.000 fold | 117.374 fold |  |  |  |  |  |  |  |
| KTINGHESPHKSAQNRQT |  |  |  |  |  |  |  | 95.531 fold | 0.000 fold | 0.113 fold | 0.082 fold | 0.130 fold | 0.000 fold | 4.815 fold |  |  |  |  |  |  |  |
| KTINGSGSPHSKAQKQQD | 0.000 fold | 70.116 fold | 0.024 fold | 0.083 fold | 0.064 fold | 0.000 fold | 110.196 fold |  |  |  |  |  |  |  |  |  |  |  |  |  |  |
| KTINGSGSPHSKALMRQT |  |  |  |  |  |  |  |  |  |  |  |  |  |  | 57.234 fold | 0.060 fold | 0.036 fold | 0.517 fold | 1.798 fold | 0.100 fold | Fold Enrichment relative to AAV9, Brain (Mouse) (brain; mouse brain): 81.332 fold |
